Reference: patent US7612087B2, “Heterocyclic compounds as inhibitors of beta-lactamases” (Novexel, priority 2002, dated 2009)

Assays:
β-lactamase TEM1 = target: T1, β-lactamase TEM1 (Escherichia coli, UniProt P62593); test: Inhibition of isolated β-lactamase Tem-1 (Nitrocefin hydrolysis); assay type: biochemical, E.coli 250HT21; conditions: 100 μM Nitrocefin, 50 mM sodium phosphate buffer pH7.0, 37° C.
T1 construct: The β-lactamases are isolated from bacterial strains which are resistant to penicillins and cephalosporins; endogenous in cells; host or cells: E. coli 250HT21 (natural producer; French-press lysate, 100,000 g supernatant)
In short: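 TEM-1 from soluble extract of E. coli 250HT21, normalized enzyme, 100 μM Nitrocefin in 50 mM sodium phosphate pH 7.0 at 37 °C. Initial-rate hydrolysis read kinetically at 485 nm, with and without 5 min enzyme–inhibitor preincubation. CI50 from 6 or 8 concentrations in duplicate.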

[1] = system: P. aeruginosa 391HT8 (PSE); test: MIC, micro-dilution in liquid medium, β-lactamine with product at 5 mg/l; assay type: cell-based; conditions: compound at 5 mg/l, 24 hours at 37° C.; for MIC of Cefotaxime in combination with the compound: Trial 12, 391HT8 P. aeruginosa PSE; for MIC of Piperacillin in combination with the compound: Trial 12, 391HT8 PSE
Description: (§1) The operation is carried out as follows, using the so-called micro-dilution in liquid medium method.
(§2) A series of concentrations of the β-lactamine is prepared in the presence of a constant concentration (5 mg/l) of the product to be studied, each is then seeded with various bacterial strains.
(§3) After incubation for 24 hours in a heating chamber at 37° C., the growth inhibition is evaluated by the absence of any bacterial development, which allows the minimal inhibitory concentrations (MIC) for each strain to be determined, expressed in milligrams/l.

E. coli 250HT22 (Tem2) = test: as above; assay type: cell-based; conditions: compound at 5 mg/l, 24 hours at 37° C.; for MIC of Cefotaxime in combination with the compound: Trial 3, 250HT22 E. coli Tem2; for MIC of Piperacillin in combination with the compound: Trial 3, 250HT22 Tem2
Description: as §1, §2, §3

[2] = system: E. coli 250HT23 (Class D); test: as above; assay type: cell-based; conditions: compound at 5 mg/l, 24 hours at 37° C.; for MIC of Piperacillin in combination with the compound: Trial 8, 250HT23 Class D; for MIC of Cefotaxime in combination with the compound: Trial 8, 250HT23 E. coli Class D
Description: as §1, §2, §3

E. coli 250HT21 (Tem1) = test: as above; assay type: cell-based; conditions: compound at 5 mg/l, 24 hours at 37° C.; for MIC of Cefotaxime in combination with the compound: Trial 2, 250HT21 E. coli Tem1; for MIC of Piperacillin in combination with the compound: Trial 2, 250HT21 Tem1
Description: as §1, §2, §3

[3] = system: S. aureus 011GO66 (PeniR); test: as above; assay type: cell-based; conditions: compound at 5 mg/l, 24 hours at 37° C.; for MIC of Cefotaxime in combination with the compound: Trial 1, 011GO66 S. aureus PeniR; for MIC of Piperacillin in combination with the compound: Trial 1, 011GO66 peniR
Description: as §1, §2, §3

[4] = system: E. cloacae 293HT6 (Class C); test: as above; assay type: cell-based; conditions: compound at 5 mg/l, 24 hours at 37° C.; for MIC of Piperacillin in combination with the compound: Trial 9, 293HT6 Class; for MIC of Cefotaxime in combination with the compound: Trial 9, 293HT6 E. cloacae Class C
Description: as §1, §2, §3

[5] = system: P. aeruginosa 391HT7 (PSE); test: as above; assay type: cell-based; conditions: compound at 5 mg/l, 24 hours at 37° C.; for MIC of Cefotaxime in combination with the compound: Trial 11, 391HT7 P. aeruginosa PSE; for MIC of Piperacillin in combination with the compound: Trial 11, 391HT7 PSE
Description: as §1, §2, §3

E. coli 250HT26 (SHV1) = test: as above; assay type: cell-based; conditions: compound at 5 mg/l, 24 hours at 37° C.; for MIC of Cefotaxime in combination with the compound: Trial 6, 250HT26 E. coli SHV1; for MIC of Piperacillin in combination with the compound: Trial 6, 250HT26 SHV1
Description: as §1, §2, §3

E. coli 250BE1 (SHV4) = test: as above; assay type: cell-based; conditions: compound at 5 mg/l, 24 hours at 37° C.; for MIC of Cefotaxime in combination with the compound: Trial 7, 250BE1 E. coli SHV4; for MIC of Piperacillin in combination with the compound: Trial 7, 250BE1 SHV4
Description: as §1, §2, §3

Serratia 301HT6 = test: as above; assay type: cell-based; conditions: compound at 5 mg/l; Trial 10, 301HT6 Serratia; 24 hours at 37° C.
Description: as §1, §2, §3

E. coli 250SJ1 (Tem7) = test: as above; assay type: cell-based; conditions: compound at 5 mg/l, 24 hours at 37° C.; for MIC of Cefotaxime in combination with the compound: Trial 5, 250SJ1 E. coli Tem7; for MIC of Piperacillin in combination with the compound: Trial 5, 250SJ1 Tem7
Description: as §1, §2, §3

E. coli 250CF1 (Tem3) = test: microbe, parasite or virus in culture; assay type: cell-based; conditions: compound at 5 mg/l, 24 hours at 37° C.; for MIC of Cefotaxime in combination with the compound: Trial 4, 250CF1 E. coli Tem3; for MIC of Piperacillin in combination with the compound: Trial 4, 250CF1 Tem3
Description: as §1, §2, §3

β-lactamase P99 = target: T2, β-lactamase P99 (Enterobacter cloacae, UniProt P05364); test: biochemical; conditions: 100 μM Nitrocefin, 50 mM sodium phosphate buffer pH7.0, 37° C.; read-out: IC50 nM/P99
T2 construct: The β-lactamases are isolated from bacterial strains which are resistant to penicillins and cephalosporins; endogenous in cells; host or cells: Enterobacter cloacae 293HT6 (natural producer; French-press lysate, 100,000 g supernatant)
In short: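 P99 β-lactamase, taken from the soluble fraction of an Enterobacter cloacae 293HT6 lysate, was assayed at 37° C. in 50 mM sodium phosphate buffer pH7.0 with 100 μM Nitrocefin as the chromogenic substrate. Hydrolysis was followed kinetically at 485 nm at initial speed, with and without a 5 mn enzyme–inhibitor preincubation. Inhibitors were tested at 6 or 8 concentrations in duplicate, and IC50 was fitted with GraFit.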

T1 sequence (P62593 24-286 limits assumed): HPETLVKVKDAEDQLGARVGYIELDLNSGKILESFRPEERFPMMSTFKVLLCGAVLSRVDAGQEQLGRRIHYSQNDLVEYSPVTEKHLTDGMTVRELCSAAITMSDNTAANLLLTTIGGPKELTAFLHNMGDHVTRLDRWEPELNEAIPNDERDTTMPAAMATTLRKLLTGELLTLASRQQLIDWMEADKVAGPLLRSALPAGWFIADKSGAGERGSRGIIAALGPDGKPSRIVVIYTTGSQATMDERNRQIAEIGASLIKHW
T2 sequence (P05364 21-381): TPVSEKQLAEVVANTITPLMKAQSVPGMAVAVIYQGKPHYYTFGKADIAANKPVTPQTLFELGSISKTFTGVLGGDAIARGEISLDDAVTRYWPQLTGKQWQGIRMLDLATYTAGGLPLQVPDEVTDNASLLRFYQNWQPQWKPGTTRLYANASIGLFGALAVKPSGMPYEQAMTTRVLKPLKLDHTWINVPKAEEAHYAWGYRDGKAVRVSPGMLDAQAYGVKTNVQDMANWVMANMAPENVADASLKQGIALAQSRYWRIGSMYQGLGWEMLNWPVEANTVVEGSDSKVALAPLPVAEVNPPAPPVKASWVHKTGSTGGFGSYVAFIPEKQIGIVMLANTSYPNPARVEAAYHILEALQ

## O=C(NCCc1cccnc1)[C@H]1CC[C@@H]2CN1C(=O)N2OS(=O)(=O)[O-].[Na+] (relative stereo) [Example 36, sodium salt of trans-7-oxo-N-[2-(3-pyridinyl)ethyl]-6-(sulphooxy)-1,6-diazabicyclo[3.2.1]octane-2-carboxamide]
β-lactamase TEM1
  IC50: 23 nM
[1]
  MIC of Cefotaxime in combination with the compound: 40 µg/mL
  MIC of Piperacillin in combination with the compound: >40 µg/mL
E. coli 250HT22 (Tem2)
  MIC of Cefotaxime in combination with the compound: <=0.04 μg/ml
  MIC of Piperacillin in combination with the compound: 40 µg/mL
[2]
  MIC of Piperacillin in combination with the compound: 20 µg/mL
  MIC of Cefotaxime in combination with the compound: <=0.04 μg/ml
E. coli 250HT21 (Tem1)
  MIC of Cefotaxime in combination with the compound: <=0.04 μg/ml
  MIC of Piperacillin in combination with the compound: 5 µg/mL
[3]
  MIC of Cefotaxime in combination with the compound: 1.2 µg/mL
  MIC of Piperacillin in combination with the compound: 1.2 µg/mL
[4]
  MIC of Piperacillin in combination with the compound: 20 µg/mL
  MIC of Cefotaxime in combination with the compound: 20 µg/mL
[5]
  MIC of Cefotaxime in combination with the compound: 40 µg/mL
  MIC of Piperacillin in combination with the compound: >40 µg/mL
E. coli 250HT26 (SHV1)
  MIC of Cefotaxime in combination with the compound: <=0.04 μg/ml
  MIC of Piperacillin in combination with the compound: 20 µg/mL
E. coli 250BE1 (SHV4)
  MIC of Cefotaxime in combination with the compound: 0.3 µg/mL
  MIC of Piperacillin in combination with the compound: >40 µg/mL
Serratia 301HT6
  MIC of Cefotaxime in combination with the compound: 0.08 µg/mL
  MIC of Piperacillin in combination with the compound: 1.2 µg/mL
E. coli 250SJ1 (Tem7)
  MIC of Cefotaxime in combination with the compound: <=0.04 μg/ml
  MIC of Piperacillin in combination with the compound: 20 µg/mL
E. coli 250CF1 (Tem3)
  MIC of Cefotaxime in combination with the compound: 0.3 µg/mL
  MIC of Piperacillin in combination with the compound: 40 µg/mL
β-lactamase P99
  IC50: 110 nM

## O=C(NCCc1ccncc1)[C@H]1CC[C@@H]2CN1C(=O)N2OS(=O)(=O)[O-].[Na+] (relative stereo) [Example 37, sodium salt of trans-7-oxo-N-[2-(4-pyridinyl)ethyl]-6-(sulphooxy)-1,6-diazabicyclo[3.2.1]octane-2-carboxamide]
β-lactamase TEM1
  IC50: 29 nM
[1]
  MIC of Cefotaxime in combination with the compound: 20 µg/mL
  MIC of Piperacillin in combination with the compound: >40 µg/mL
E. coli 250HT22 (Tem2)
  MIC of Cefotaxime in combination with the compound: <=0.04 μg/ml
  MIC of Piperacillin in combination with the compound: >40 µg/mL
[2]
  MIC of Piperacillin in combination with the compound: 40 µg/mL
  MIC of Cefotaxime in combination with the compound: <=0.04 μg/ml
E. coli 250HT21 (Tem1)
  MIC of Cefotaxime in combination with the compound: <=0.04 μg/ml
  MIC of Piperacillin in combination with the compound: 2.5 µg/mL
[3]
  MIC of Cefotaxime in combination with the compound: 1.2 µg/mL
  MIC of Piperacillin in combination with the compound: 0.6 µg/mL
[4]
  MIC of Piperacillin in combination with the compound: 40 µg/mL
  MIC of Cefotaxime in combination with the compound: >40 µg/mL
[5]
  MIC of Cefotaxime in combination with the compound: 20 µg/mL
  MIC of Piperacillin in combination with the compound: >40 µg/mL
E. coli 250HT26 (SHV1)
  MIC of Cefotaxime in combination with the compound: <=0.04 μg/ml
  MIC of Piperacillin in combination with the compound: 20 µg/mL
E. coli 250BE1 (SHV4)
  MIC of Cefotaxime in combination with the compound: 0.6 µg/mL
  MIC of Piperacillin in combination with the compound: >40 µg/mL
Serratia 301HT6
  MIC of Cefotaxime in combination with the compound: 0.08 µg/mL
  MIC of Piperacillin in combination with the compound: 2.5 µg/mL
E. coli 250SJ1 (Tem7)
  MIC of Cefotaxime in combination with the compound: 0.08 µg/mL
  MIC of Piperacillin in combination with the compound: >40 µg/mL
E. coli 250CF1 (Tem3)
  MIC of Cefotaxime in combination with the compound: 0.3 µg/mL
  MIC of Piperacillin in combination with the compound: 40 µg/mL
β-lactamase P99
  IC50: 160 nM

## O=C(NCCc1ccccn1)[C@H]1CC[C@@H]2CN1C(=O)N2OS(=O)(=O)[O-].[Na+] (relative stereo) [Example 38, sodium salt of trans-7-oxo-N-[2-(2-pyridinyl)ethyl]-6-(sulphooxy)-1,6-diazabicyclo[3.2.1]octane-2-carboxamide]
β-lactamase TEM1
  IC50: 35 nM
[1]
  MIC of Cefotaxime in combination with the compound: 40 µg/mL
  MIC of Piperacillin in combination with the compound: >40 µg/mL
E. coli 250HT22 (Tem2)
  MIC of Cefotaxime in combination with the compound: <=0.04 μg/ml
  MIC of Piperacillin in combination with the compound: >40 µg/mL
[2]
  MIC of Piperacillin in combination with the compound: >40 µg/mL
  MIC of Cefotaxime in combination with the compound: <=0.04 μg/ml
E. coli 250HT21 (Tem1)
  MIC of Cefotaxime in combination with the compound: <=0.04 μg/ml
  MIC of Piperacillin in combination with the compound: 5 µg/mL
[3]
  MIC of Cefotaxime in combination with the compound: 1.2 µg/mL
  MIC of Piperacillin in combination with the compound: 0.6 µg/mL
[4]
  MIC of Piperacillin in combination with the compound: 40 µg/mL
  MIC of Cefotaxime in combination with the compound: 20 µg/mL
[5]
  MIC of Cefotaxime in combination with the compound: 40 µg/mL
  MIC of Piperacillin in combination with the compound: >40 µg/mL
E. coli 250HT26 (SHV1)
  MIC of Cefotaxime in combination with the compound: <=0.04 μg/ml
  MIC of Piperacillin in combination with the compound: 40 µg/mL
E. coli 250BE1 (SHV4)
  MIC of Cefotaxime in combination with the compound: 0.3 µg/mL
  MIC of Piperacillin in combination with the compound: >40 µg/mL
Serratia 301HT6
  MIC of Cefotaxime in combination with the compound: 0.08 µg/mL
  MIC of Piperacillin in combination with the compound: 1.2 µg/mL
E. coli 250SJ1 (Tem7)
  MIC of Cefotaxime in combination with the compound: <=0.04 μg/ml
  MIC of Piperacillin in combination with the compound: >40 µg/mL
E. coli 250CF1 (Tem3)
  MIC of Cefotaxime in combination with the compound: 0.3 µg/mL
  MIC of Piperacillin in combination with the compound: 20 µg/mL
β-lactamase P99
  IC50: 77 nM
